From patent US12558354B2, “Tumor necrosis factor alpha (TNF-alpha) small molecule inhibitor” (AJOU UNIVERSITY INDUSTRY-ACADEMIC COOPERATION FOUNDATION, priority 2019, dated 2026)
Entries after “also recorded” stand apart in the source; their conditions may differ.

Key:
[1] = target: T1, recombinant human TNF-α (rhTNF-α) (Homo sapiens, UniProt P01375); assay: TNF-α-mediated hIL-6 secretion in HDFs (ELISA); assay type: cell-based; conditions: 24 hours
T1 construct: purchased Miltenyi Biotec
Description: (§1) HDFs were seeded at a density of 10^4/well in a 96-well plate (BD Biosciences) and grown overnight. The cells were treated for 24 hours with a 1-hour-pre-incubated mixture of rhTNF-α and test compounds. IL-8 secretion was assessed by a human IL-8 uncoated ELISA kit (eBioscience, Inc., San Diego, CA, USA), and IL-6 secretion level was assessed by a human IL-6 ELISA MAX™ Deluxe kit (BioLegend, San Diego, CA, USA). The microtiter plates were then analyzed at an appropriate wavelength using a microplate spectrophotometer system (Molecular Devices, Silicon Valley, California).

[2] = target: T2, recombinant mouse TNF-α homotrimer (Mus musculus, UniProt P06804); assay: Dissociation of TNF-α trimerization assembly (cross-linking, Western blot), mouse; assay type: biochemical; conditions: cross-linked with BS3, Western blot
T2 construct: purchased Miltenyi Biotec
T2 sequence (P06804 80-235 limits assumed): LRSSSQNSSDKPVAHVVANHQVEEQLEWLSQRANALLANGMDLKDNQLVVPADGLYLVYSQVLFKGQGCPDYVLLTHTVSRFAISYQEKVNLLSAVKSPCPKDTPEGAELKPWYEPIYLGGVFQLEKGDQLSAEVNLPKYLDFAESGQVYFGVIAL
Description: (§2) Inhibitors were incubated with 100 ng of recombinant TNF-α at 37° C. for 1 hour and then cross-linked with 4.8 mM BS3 (Thermo Fisher Scientific, Inc.) at room temperature for 30 minutes. Then, a 1/10 volume of 1 M Tris-HCl (pH 7.5) was added to stop the reaction. Thereafter, samples were separated by SDS-PAGE, followed by Western blotting with anti-TNF-α antibody (Cell Signaling Technology Inc.).

[3] = system: TNF-α-dependent signaling pathways (NF-κB, MAPKs, caspases 3 and 8); assay: Western blot of TNF-α-dependent signaling pathways in L929 cells; assay type: cell-based, mouse
Description: Total protein was extracted from the treated cells using an M-PER mammalian protein extraction reagent (Thermo Fisher Scientific, Inc.). The cell pellets were dissolved in a mixture of M-PER with protease and phosphatase inhibitor cocktail (Thermo Fisher Scientific, Inc.) at 4° C. for 1 minute, and the lysate thus obtained was centrifuged at 16,000×g and 4° C. for 10 minutes. The supernatant containing the protein was collected in a separate Eppendorf tube, and a BCA assay (Sigma-Aldrich) was performed for protein quantification. 20 Hg of a protein sample was placed in a 10-12% polyacrylamide gel (containing SDS), and the separated protein was transferred to a nitrocellulose membrane (HYBOND ECL™; Amersham Pharmacia Biotech Inc, Piscataway, New Jersey) of a mini-PROTEAN tetra cell and mini trans-blot electrophoretic transfer cell system (Bio-Rad Laboratories). Membrane blocking was performed with 5% nonfat dried milk for 1 hour. The membrane was subjected to immunoblotting through gentle shaking overnight at a temperature of 4° C. with certain primary antibodies, i.e. antibodies to (phospho-)p-p65, p-JNK, JNK, p-ERK, ERK, cleaved caspase 3 (Cell Signaling Technology Inc., Danvers, MA, USA), p-p38, caspase 8, and β-actin (Santa Cruz Biotechnology Inc., Dallas, TX, USA). The next day, after rigorous washing with PBST, the membrane was incubated with peroxidase-conjugated anti-mouse or anti-rabbit IgG antibodies at room temperature for 2 hours. Protein was detected using a SuperSignal West Pico ECL solution (Thermo Fisher Scientific, Inc.) and visualized with a CHEMIDOC™ Touch Imaging System (Bio-Rad Laboratories).

[4] = system: murine fibrosarcoma cell line L929; assay: Cell viability (MTT) assay in L929 cells; assay type: cell-based; conditions: L929, up to 200 μM, 24 hours
Description: (§3) FIG. 8A is a graph showing the effects of TIM1 and a solvent thereof, DMSO, on the viability of human dermal fibroblasts, in which cells (10^4/well) were treated with DMSO at 3 different concentrations (0.5, 1, and 2%) and TIM1 at 8 different concentrations (1, 3.125, 6.25, 12.5, 25, 50, 100, and 200 μM) for 24 hours, and the cell viability was monitored by an MTT assay. FIG. 8B is a graph showing the effect of TIM1 on the viability of a mouse fibrosarcoma cell line [L929 (1.5×10^4/well)] under the same conditions as in FIG. 8A. All experiments were independently performed 4 times, and mean±SEM of the independent experiments was calculated using a two-tailed paired Student's t-test (*P<0.05).
In order to measure cell viability, a colorimetric […] (MTT) assay (Sigma-Aldrich Co.) was performed. HDFs were seeded at a density of 10^4/well in 96-well plates (BD Biosciences, San Jose, CA, USA), grown overnight, and then treated with a test compound at various concentrations for 24 hours. The next day, the medium was replaced with a medium (100 μl/well) containing a 10% MTT solution, followed by incubated at 37° C. for 3 hours. […] Thereafter, the plates were read at a wavelength of 540 nm using a microplate spectrophotometer system (Molecular Devices, Silicon Valley, California).

[5] = target: T1, recombinant human TNF-α (rhTNF-α); assay: TNF-α-mediated hIL-8 secretion in HDFs (ELISA); assay type: cell-based; conditions: 24 hours
Description: as §1

[6] = system: human dermal fibroblasts (HDFs); assay: Cell viability (MTT) assay in human dermal fibroblasts; assay type: cell-based; conditions: 24 hours
Description: as §3
In order to measure cell viability, a colorimetric […] (MTT) assay (Sigma-Aldrich Co.) was performed. HDFs were seeded at a density of 10^4/well in 96-well plates (BD Biosciences, San Jose, CA, USA), grown overnight, and then treated with a test compound at various concentrations for 24 hours. The next day, the medium was replaced with a medium (100 μl/well) containing a 10% MTT solution, followed by incubated at 37° C. for 3 hours. This solution was replaced with DMSO (100 μl/well), and the plates were incubated at room temperature for 30 minutes. Thereafter, the plates were read at a wavelength of 540 nm using a microplate spectrophotometer system (Molecular Devices, Silicon Valley, California).

[7] = target: T3, recombinant human TNF-α homotrimer (Homo sapiens, UniProt P01375); assay: Dissociation of TNF-α trimerization assembly (cross-linking, Western blot), human; assay type: biochemical; conditions: cross-linked with BS3, Western blot
T3 construct: purchased Miltenyi Biotec
T3 sequence (P01375 77-233 limits assumed): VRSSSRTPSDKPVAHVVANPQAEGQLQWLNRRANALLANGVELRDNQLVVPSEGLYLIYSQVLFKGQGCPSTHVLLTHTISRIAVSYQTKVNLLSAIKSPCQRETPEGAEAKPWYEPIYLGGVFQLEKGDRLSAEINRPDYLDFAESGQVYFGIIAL
Description: as §2

[8] = target: T1, recombinant human TNF-α (rhTNF-α); assay: Cell death attenuation assay, act-D-sensitized HDFs with rhTNF-α; assay type: cell-based
Description: (§4) HDFs (10^4/well) and L929 cell lines (1.5×10^4/well) were seeded in 96-well plates and grown overnight under appropriate conditions. The next day, HDFs and L929 cells were pretreated with 1 μg/ml act-D and 0.1 μg/ml act-D, respectively, followed by incubated for 30 minutes. Thereafter, a 1-hour-preincubated mixture of 10 ng/ml rhTNFα with test compounds or 1 ng/ml rmTNFα with test compounds, was applied to HDFs and L929 cells, respectively. The cells were incubated for 24 hours post-treatment, and survival was measured by the MTT assay. Cell viability was calculated with reference to the no-treatment control group. The obtained values were normalized with respect to the act-D treatment group and then used to calculate death attenuation (%) rate using the following equation: […]

[9] = target: T4, recombinant mouse TNF-α (rmTNF-α) (Mus musculus, UniProt P06804); assay: Cell death attenuation assay, act-D-sensitized L929 cells with rmTNF-α; assay type: cell-based
T4 construct: purchased Miltenyi Biotec
T4 sequence (P06804 80-235 limits assumed): T2 sequence (P06804 80-235 limits assumed)
Description: as §4

TNF-α = TNF-α (Homo sapiens, UniProt P01375); conditions: target TNF-α, literature; cited from earlier work
Chain of TNF-α (P01375 77-233 limits assumed, species assumed): as the sequence (P01375 77-233 limits assumed) above

TNFRI = target: T5, TNFRI (Homo sapiens, UniProt P19438); conditions: target TNFRI, literature; cited from earlier work
T5 sequence (P19438 30-455): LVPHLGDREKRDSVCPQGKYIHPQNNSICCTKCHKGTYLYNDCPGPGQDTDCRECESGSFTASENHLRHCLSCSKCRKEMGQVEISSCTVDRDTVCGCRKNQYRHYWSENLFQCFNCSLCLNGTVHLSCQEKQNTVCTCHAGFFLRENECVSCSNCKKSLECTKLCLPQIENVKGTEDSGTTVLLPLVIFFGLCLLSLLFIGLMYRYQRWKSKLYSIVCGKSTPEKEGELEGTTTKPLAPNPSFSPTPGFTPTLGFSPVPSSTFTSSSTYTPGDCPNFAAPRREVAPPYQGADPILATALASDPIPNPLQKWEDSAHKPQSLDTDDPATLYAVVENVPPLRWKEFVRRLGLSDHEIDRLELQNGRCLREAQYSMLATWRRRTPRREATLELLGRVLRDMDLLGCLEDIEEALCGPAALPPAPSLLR

[10] = HDFs, rhTNF-α 1 ng/ml pre-incubated 1 hour
[11] = L929, 20 μM, rmTNF-α 1 ng/ml, 5-30 minutes

T1 sequence (P01375 77-233 limits assumed): as the sequence (P01375 77-233 limits assumed) above

C#Cc1cccc(Nc2nc(-c3cc(C)n(NC(=O)c4nn(C)c(=O)c5ccccc45)c3C)cs2)c1 [TIM1, N-(3-{2-[(3-ethynylphenyl)amino]-1,3-thiazol-4-yl}-2,5-dimethylpyrrol-1-yl)-3-methyl-4-oxophthalazine-1-carboxamide]
inhibition of TNF-α-mediated hIL-6 secretion ([1]; HDFs, 1, 10, 50 and 100 μM): inhibited TNF-α-mediated secretion | IC50 [1, 10]: 6.3 µM | formation of functional homotrimers, rmTNF-α [2]: inhibited the formation of functional homotrimers | TNF-α-mediated phosphorylation of the p65 subunit (NF-κB) [3, 11]: attenuated | phosphorylation of MAPKs (p38 MAPK, JNK, ERK) [3, 11]: inhibited | formation of cleaved active caspases 3 and 8 ([3]; L929, TNF-α stimulation): blocked | lethality at increasing concentrations [4]: no lethality | inhibition of TNF-α-mediated hIL-8 secretion ([5]; HDFs, 1, 10, 50 and 100 μM): inhibited TNF-α-mediated secretion | IC50 [5, 10]: 16.7 µM | lethality / cytotoxicity at increasing concentrations ([6]; HDF, up to 200 μM): no lethality; also recorded: does not show cytotoxicity up to 200 μM | cytotoxicity (cell viability, MTT assay) ([6]; HDFs): no cytotoxicity up to a concentration of 50 μM; also recorded: did not exhibit cytotoxicity even at high concentrations (up to 100 μM) | formation of functional homotrimers, rhTNF-α [7]: inhibited the formation of functional homotrimers | IC50 [8]: 26.2 µM | attenuation of TNF-α-induced apoptosis ([8]; act-D-sensitized HDFs, rhTNF-α 10 ng/ml, 1-100 μM): Significant attenuation | IC50 [9]: 24.9 µM | inhibition of rmTNF-α-mediated proapoptotic pathway / cell death ([9]; act-D-sensitized L929, rmTNF-α 1 ng/ml, 1-100 μM): inhibited the rmTNF-α-mediated proapoptotic pathway in L929 cells in a concentration-dependent manner

O=C1Sc2c(S(=O)(=O)Nc3ccc(O)cc3)cc(S(=O)(=O)Nc3ccc(O)cc3)c3cccc1c23 [AP-906/41640035]
IC50 (TNF-α): 14 µM

Physcion-8-O-β-D-monoglucoside
Kd (TNFRI): 0.376 µM
